Measured values published in PubChem BioAssay AID720512 (Broad Institute, 2013).
Calls of active or inactive are those of the source. No rule for the calls is given here.

Target: Toxin B (TcdB) glycohydrolase, Clostridioides difficile 630
Assay: TcdB glycohydrolase inhibitors, dose response, biochemical, cherry-pick, plate reader (AID 720512)
Settings: recombinant TcdB glycohydrolase activity

Compound | AC50
O=C(O)COn1c(-c2ccc(Cl)cc2)nc2ccc(Cl)cc21 | > 39 µM (inactive)
COc1ccc2nc(NNC(=O)C3COc4ccccc4O3)sc2c1 (stereo unspecified) | 3.04 µM
O=S(=O)(Oc1ccccc1/C=N/n1cnnc1)c1ccccc1 | > 39 µM (inactive)
Nc1ncc(S(=O)(=O)c2ccc([N+](=O)[O-])cc2)s1 | > 39 µM (inactive)
O=c1[nH]c(/C=C\c2ccc(O)c(Cl)c2)nc(O)c1[N+](=O)[O-] | > 39 µM (inactive)
COCC(=O)N1CC[C@@H]2[C@H]1c1cc(-c3ccc(OC)cc3)ccc1N(C)[C@H]2CO | > 39 µM (inactive)
CCn1c(C)nc2cc(C(=O)N/N=C/c3ccc(OC)c(O)c3)ccc21 | > 39 µM (inactive)
COc1ccc(C2(CNC(=O)c3ccc(OC)c([N+](=O)[O-])c3)CCCCC2)cc1OC | > 39 µM (inactive)
CC1CCC/C(=C\c2ccc(O)cc2)C1=O (stereo unspecified) | 16.9 µM
Oc1ccc2ccc3[nH]cnc3c2c1 | > 39 µM (inactive)

Same assay, conditions: recombinant TcdB glycohydrolase activity, at 19.5 µM (top of the series)

Compound | activity change, negative = inhibition
COc1ccc(OC)c2sc(NNC(=O)C3COc4ccccc4O3)nc12 (stereo unspecified) | inactive
CNc1n[nH]c(=S)s1 | inactive
CCC(=Nc1ccccc1)C1=C(O)CCCC1=O | inactive
CSc1nc2c(c(=O)[nH]c(=O)n2C)n1Cc1ccccc1 | inactive
S=c1[nH]nc(NC2CCCCC2)s1 | inactive
COc1ccc(/C=C/c2onc(C)c2S(=O)(=O)N2CCC(C(=O)N3CCC(C)CC3)CC2)cc1 | inactive
COc1cc(/C=N/NC(=O)C2COc3ccccc3O2)ccc1O (stereo unspecified) | inactive
Cc1nc2ccccn2c1-c1ccnn1S(=O)(=O)c1ccc(F)cc1 | inactive
COc1ccc(/C=C\c2onc(C)c2S(=O)(=O)N2CCC(C(=O)NCc3ccco3)CC2)cc1 | inactive
CCCc1[nH]c(=O)c(C#N)c2c1CCCC2 | inactive
CCNC(=O)C[C@H]1CC[C@@H]2[C@@H](COc3ccc(NC(C)=O)cc3C(=O)N2C)O1 | inactive
c1ccc(Cc2nnc3n2N=C(c2ccccc2)CS3)cc1 | inactive
Cc1cc(C)c2sc(NNC(=O)C3COc4ccccc4O3)nc2c1 (stereo unspecified) | inactive
COc1ccc(CNC(=O)c2cc3c(s2)CN(Cc2ccccc2)C3)cc1 | inactive
O=c1[nH][nH]c(=O)c2c1[nH]c(=S)n2Cc1ccccc1 | inactive
COCC(=O)N1CC[C@@H]2[C@H]1c1cc(-c3ccc(F)cc3)ccc1N(C)[C@H]2CO | inactive
Cc1[nH]ccc2c1[nH]c1cc(=O)ccc12 | inactive
CC(OC(=O)C1=COCCO1)C(=O)c1ccc(Br)cc1 (stereo unspecified) | inactive

Compound | activity change, negative = inhibition
COC(=O)C[C@H]1CC[C@@H]2[C@@H](COc3ccc(NC(=O)c4ccc(OC)cc4)cc3C(=O)N2C)O1 | inactive
CN(C)CCCNC(=O)C[C@H]1CC[C@@H]2[C@@H](COc3ccc(NC(=O)c4ccc5c(c4)OCO5)cc3C(=O)N2C)O1 | inactive
CC(C)Cc1[nH]c(=O)c(C#N)c2c1CCC2 | inactive
CCOc1ccccc1/C=C/c1onc(C)c1S(=O)(=O)N1CCC(C(=O)N(CC)CC)CC1 | inactive
C/C(=N\Nc1ccc([N+](=O)[O-])cc1)c1cccc(N)c1 | inactive
Cc1ccc(S(=O)(=O)Oc2cccc(/C=N/n3cnnc3)c2)cc1 | inactive
O=C(NN=Cc1cc(Br)c(O)c(Br)c1)c1ccccc1NS(=O)(=O)c1cccs1 | inactive
COC(=O)C[C@@H]1CC[C@@H]2[C@H](COC[C@H](O)CN2C(=O)Nc2ccccc2OC)O1 | inactive
N/C(=N\N=C\c1ccc(O)cc1)c1nonc1N | inactive
Cc1cccc(-n2nnc(C(=O)NCc3ccccc3Cl)c2N)c1 | inactive
COc1ccc(CNC(=O)C2=CC(c3ccc(C)cc3)=NS(=O)(=O)N2C)cc1 | inactive
COc1cccc(/C=C/c2onc(C)c2S(=O)(=O)N2CCC(C(=O)NC3CCCCCC3)CC2)c1 | inactive
COc1cc(OC)c(OC)cc1/C=C/c1ccnc2ccccc12 | inactive
O=C(c1ccc2c(c1)N(Cc1ccccc1)C(=O)c1ccccc1S2)N1CCCC1 | inactive
O=P1(Oc2ccccc2)OCCCS1 (stereo unspecified) | inactive
Cc1cc(C)c(C)c(S(=O)(=O)N2CCCCC2C(=O)O)c1C (stereo unspecified) | inactive
Nc1nc(Nc2ccccc2)n[nH]1 | inactive
CNC(=O)C[C@@H]1CC[C@@H]2[C@H](COc3ccc(NS(=O)(=O)c4ccccc4C)cc3C(=O)N2C)O1 | inactive
